Assay results: publication PMC10796634, “Discovery of plant chemical defence mediated by a two-component system involving β-glucosidase in Panax species” (Nature Communications, 2024)

Tested on: PnGH1
Experiment: HPLC quantification of product Fd, Michaelis-Menten fit
Assay type: biochemical, Panax notoginseng
Settings: pH 5.0 (50 mM Tris-HCl), 60 °C, 30 min, 30–8000 µM Rb3

Km: 677 ± 38.5 µM
SMILES: CC(C)=CCC[C@](C)(O[C@@H]1O[C@H](CO[C@@H]2OC[C@@H](O)[C@H](O)[C@H]2O)[C@@H](O)[C@H](O)[C@H]1O)[C@H]1CC[C@]2(C)[C@@H]1[C@H](O)C[C@@H]1[C@@]3(C)CC[C@H](O[C@@H]4O[C@H](CO)[C@@H](O)[C@H](O)[C@H]4O[C@@H]4O[C@H](CO)[C@@H](O)[C@H](O)[C@H]4O)C(C)(C)[C@@H]3CC[C@]12C [compound 4, Rb3]
